For 19 compounds, IC50 results are on record in patent US20240148821A1, “PHARMACEUTICAL USE OF CYCLIC PEPTIDE COMPOUND” (CHUGAI SEIYAKU KABUSHIKI KAISHA, priority 2021, published 2024).

Bridge positions count the residues as written; N and C are the ends. Square brackets hold non-standard residues; d marks the D form. Peptide text beside a SMILES is read from it. * marks the point of attachment. hPhe(3-Cl-4-CF3) = N[C@@H](CCc1ccc(C(F)(F)F)c(Cl)c1)C(=O)O; NMePhe(4-Me) = CN[C@@H](Cc1ccc(C)cc1)C(=O)O; NMePhe(4-F) = CN[C@@H](Cc1ccc(F)cc1)C(=O)O; NMeNva(5,5-F2) = CN[C@@H](CCC(F)F)C(=O)O; NMeGly(cPent) = CN[C@H](C(=O)O)C1CCCC1; NMe3Pal = CN[C@@H](Cc1cccnc1)C(=O)O; NMeCha = CN[C@@H](CC1CCCCC1)C(=O)O; NMeGly(cPr) = CN[C@H](C(=O)O)C1CC1; NMeAhp(2) = CCCCC[C@H](NC)C(=O)O; NMeChg = CN[C@H](C(=O)O)C1CCCCC1; NMeF = CN[C@@H](Cc1ccccc1)C(=O)O; NMeI = CC[C@H](C)[C@H](NC)C(=O)O; NMeD = CN[C@@H](CC(=O)O)C(=O)O; NMeL = CN[C@@H](CC(C)C)C(=O)O; Ahp(2) = CCCCC[C@H](N)C(=O)O; hLeu = CC(C)CC[C@H](N)C(=O)O; NMeV = CN[C@H](C(=O)O)C(C)C; d(β3hA) = C[C@@H](N)CC(=O)O; NMeS = CN[C@@H](CO)C(=O)O; Ac6c = NC1(C(=O)O)CCCCC1; Morpholide = C1CN(*)CCO1; NMeA = CN[C@@H](C)C(=O)O; Nle = CCCC[C@H](N)C(=O)O; Piperidide = C1CCN(*)CC1; Pyrrolidide = C1CCN(*)C1; dNMeA = CN[C@H](C)C(=O)O; Ac5c = NC1(C(=O)O)CCCC1; Aze = O=C(O)[C@@H]1CCN1; Sar = CNCC(=O)O

For the experiment, the system named is Human pancreatic cancer cell line AsPC-1 (G12D mutation Kras). As to the kind of experiment: AsPC-1 cell growth inhibition (AsPC-1 CGI). The experiment is classed as cell-based. Conditions: read-out: AsPC-1 cell growth inhibition, 50% growth inhibitory concentration (IC50 value); 96 hours, CellTiter-Glo, values classified in ranges.
Description: Test compounds were serially dilated with dimethyl sulfoxide, and 200 nL was then dispensed to a U-bottom 96-well plate using Labcyte Echo. […] The cell suspension was dispensed to a. plate containing a test compound at 100 μL per well and incubated at 37° C. in a 5% carbon dioxide gas incubator. 96 hours later, 80 μL of CellTiter-Glo (Promega) was added to each well and fluorescence was measured.
As for `CC[C@H](C)[C@@H]1NC(=O)[C@H](CC(C)C)N(C)C(=O)C[C@@H](C(=O)N2CCCCC2)N(C)C(=O)[C@H](C2CCCCC2)N(C)C(=O)C2(CCCCC2)NC(=O)[C@@H]2CCCN2C(=O)[C@H](CCc2ccc(C(F)(F)F)c(Cl)c2)NC(=O)CN(C)C(=O)[C@H](CC2CCCCC2)N(C)C(=O)CN(C)C(=O)CN(C)C1=O` [Compound 1644] ([NMeL]I[Sar][Sar][NMeCha][Sar][hPhe(3-Cl-4-CF3)]P[Ac6c][NMeChg][NMeD]-Piperidide; lactam N-11), the IC50 is more than 500 nM.
As to `CC[C@H](C)[C@@H]1NC(=O)[C@H](CC(C)C)N(C)C(=O)C[C@@H](C(=O)N2CCCCC2)N(C)C(=O)[C@H](C2CCCCC2)N(C)C(=O)C2(CCCC2)NC(=O)[C@@H]2CCCN2C(=O)[C@H](CCc2ccc(C(F)(F)F)c(Cl)c2)NC(=O)CN(C)C(=O)[C@H](CCC(F)F)N(C)C(=O)CN(C)C(=O)CN(C)C1=O` [Compound 1647] ([NMeL]I[Sar][Sar][NMeNva(5,5-F2)][Sar][hPhe(3-Cl-4-CF3)]P[Ac5c][NMeChg][NMeD]-Piperidide; lactam N-11), the IC50 is more than 500 nM.
For the compound `CC[C@H](C)[C@@H]1NC(=O)[C@H](CC(C)C)N(C)C(=O)C[C@@H](C(=O)N2CCCCC2)N(C)C(=O)[C@H]([C@@H](C)CC)N(C)C(=O)C2(CCCC2)NC(=O)[C@@H]2CCCN2C(=O)[C@H](CCc2ccc(C(F)(F)F)c(Cl)c2)NC(=O)CN(C)C(=O)[C@H](Cc2ccc(C)cc2)N(C)C(=O)CN(C)C(=O)CN(C)C1=O` [Compound 1649] ([NMeL]I[Sar][Sar][NMePhe(4-Me)][Sar][hPhe(3-Cl-4-CF3)]P[Ac5c][NMeI][NMeD]-Piperidide; lactam N-11), the IC50 is not above 20 nM.
`CC(C)CC[C@@H]1NC(=O)[C@H](CC(C)C)N(C)C(=O)C[C@@H](C(=O)N2CCCCC2)N(C)C(=O)[C@H](C2CCCCC2)N(C)C(=O)C2(CCCC2)NC(=O)[C@@H]2CCCN2C(=O)[C@H](CCc2ccc(C(F)(F)F)c(Cl)c2)NC(=O)CN(C)C(=O)[C@H](CC2CCCCC2)N(C)C(=O)CN(C)C(=O)CN(C)C1=O` [Compound 1651] ([NMeL][hLeu][Sar][Sar][NMeCha][Sar][hPhe(3-Cl-4-CF3)]P[Ac5c][NMeChg][NMeD]-Piperidide; lactam N-11): the IC50 was more than 500 nM.
Under `CC[C@H](C)[C@@H]1NC(=O)[C@H](CC(C)C)N(C)C(=O)C[C@@H](C(=O)N(C)C)N(C)C(=O)[C@H](C2CCCC2)N(C)C(=O)C2(CCCC2)NC(=O)[C@@H]2CCCN2C(=O)[C@H](CCc2ccc(C(F)(F)F)c(Cl)c2)NC(=O)CN(C)C(=O)[C@H](CC2CCCCC2)N(C)C(=O)CN(C)C(=O)CN(C)C1=O` [Compound 1659] ([NMeL]I[Sar][Sar][NMeCha][Sar][hPhe(3-Cl-4-CF3)]P[Ac5c][NMeGly(cPent)][NMeD]-NMe2; lactam N-11) stands not above 20 nM.
In the case of `CC[C@H](C)[C@@H]1NC(=O)[C@H](CC(C)C)N(C)C(=O)C[C@@H](C(=O)N2CCCC2)N(C)C(=O)[C@H]([C@@H](C)CC)N(C)C(=O)C2(CCCC2)NC(=O)[C@@H]2CCCN2C(=O)[C@H](CCc2ccc(C(F)(F)F)c(Cl)c2)NC(=O)CN(C)C(=O)[C@H](CC2CCCCC2)N(C)C(=O)CN(C)C(=O)CN(C)C1=O` [Compound 1662] ([NMeL]I[Sar][Sar][NMeCha][Sar][hPhe(3-Cl-4-CF3)]P[Ac5c][NMeI][NMeD]-Pyrrolidide; lactam N-11), the IC50 is not above 20 nM.
The same measure for `CC[C@H](C)[C@@H]1NC(=O)[C@H](CC(C)C)N(C)C(=O)C[C@@H](C(=O)N2CCCCC2)N(C)C(=O)[C@H](C2CCCCC2)N(C)C(=O)C2(CCCC2)NC(=O)[C@@H]2CCCN2C(=O)[C@H](CCc2ccc(C(F)(F)F)c(Cl)c2)NC(=O)CN(C)C(=O)[C@H](C2CC2)N(C)C(=O)CN(C)C(=O)CN(C)C1=O` [Compound 1666] ([NMeL]I[Sar][Sar][NMeGly(cPr)][Sar][hPhe(3-Cl-4-CF3)]P[Ac5c][NMeChg][NMeD]-Piperidide; lactam N-11): more than 500 nM; for `CC[C@H](C)[C@@H]1NC(=O)[C@H](C)N(C)C(=O)C[C@@H](C)NC(=O)[C@H](C(C)C)N(C)C(=O)C2(CCCC2)NC(=O)[C@@H]2CCCN2C(=O)[C@H](CCc2ccc(C(F)(F)F)c(Cl)c2)NC(=O)[C@H]2CCCN2C(=O)[C@H](Cc2ccc(F)cc2)N(C)C(=O)[C@@H]2CCCN2C(=O)CN(C)C1=O` [Compound 1667] (cyclo([Ac5c][NMeV][d(β3hA)][NMeA]I[Sar]P[NMePhe(4-F)][dP][hPhe(3-Cl-4-CF3)]P)): more than 500 nM; for `CC[C@H](C)[C@@H]1NC(=O)[C@H](CC(C)C)N(C)C(=O)C[C@@H](C(=O)N2CCCCC2)N(C)C(=O)[C@H](C2CCCCC2)N(C)C(=O)C2(CCCC2)NC(=O)[C@@H]2CCCN2C(=O)[C@H](CCc2ccc(C(F)(F)F)c(Cl)c2)NC(=O)CN(C)C(=O)[C@H](C)N(C)C(=O)CN(C)C(=O)CN(C)C1=O` [Compound 1681] ([NMeL]I[Sar][Sar][NMeA][Sar][hPhe(3-Cl-4-CF3)]P[Ac5c][NMeChg][NMeD]-Piperidide; lactam N-11): more than 500 nM.
The same measure for `CC[C@H](C)[C@@H]1NC(=O)[C@H](CC(C)C)N(C)C(=O)C[C@@H](C(=O)N2CCCCC2)N(C)C(=O)[C@H](C2CCCCC2)N(C)C(=O)C2(CCCC2)NC(=O)[C@@H]2CCCN2C(=O)[C@H](CCc2ccc(C(F)(F)F)c(Cl)c2)NC(=O)CN(C)C(=O)[C@H](CO)N(C)C(=O)CN(C)C(=O)CN(C)C1=O` [Compound 1687] ([NMeL]I[Sar][Sar][NMeS][Sar][hPhe(3-Cl-4-CF3)]P[Ac5c][NMeChg][NMeD]-Piperidide; lactam N-11): more than 500 nM; for `CC[C@H](C)[C@@H]1NC(=O)[C@H](C)N(C)C(=O)C[C@@H](C)NC(=O)[C@H](C2CCCCC2)N(C)C(=O)C2(CCCC2)NC(=O)[C@@H]2CCCN2C(=O)[C@H](CCc2ccc(C(F)(F)F)c(Cl)c2)NC(=O)CN(C)C(=O)[C@H](CC2CCCCC2)N(C)C(=O)CN(C)C(=O)CN(C)C1=O` [Compound 1688] (cyclo([Ac5c][NMeChg][d(β3hA)][NMeA]I[Sar][Sar][NMeCha][Sar][hPhe(3-Cl-4-CF3)]P)): more than 500 nM.
The same measure for `CCCCC[C@@H]1NC(=O)[C@H](CC(C)C)N(C)C(=O)C[C@@H](C(=O)N2CCCCC2)N(C)C(=O)[C@H](C2CCCCC2)N(C)C(=O)C2(CCCC2)NC(=O)[C@@H]2CCCN2C(=O)[C@H](CCc2ccc(C(F)(F)F)c(Cl)c2)NC(=O)CN(C)C(=O)[C@H](CC2CCCCC2)N(C)C(=O)CN(C)C(=O)CN(C)C1=O` [Compound 1692] ([NMeL][Ahp(2)][Sar][Sar][NMeCha][Sar][hPhe(3-Cl-4-CF3)]P[Ac5c][NMeChg][NMeD]-Piperidide; lactam N-11): more than 500 nM; for `CC[C@H](C)[C@@H]1NC(=O)[C@H](C)N(C)C(=O)C[C@@H](C(=O)N2CCCCC2)N(C)C(=O)[C@H](C(C)C)N(C)C(=O)C2(CCCC2)NC(=O)[C@@H]2CCCN2C(=O)[C@H](CCc2ccc(C(F)(F)F)c(Cl)c2)NC(=O)CN(C)C(=O)[C@H](Cc2ccc(F)cc2)N(C)C(=O)[C@@H]2CCCN2C(=O)CN(C)C1=O` [Compound 1698] ([NMeA]I[Sar]P[NMePhe(4-F)][Sar][hPhe(3-Cl-4-CF3)]P[Ac5c][NMeV][NMeD]-Piperidide; lactam N-11): more than 500 nM; for `CC[C@H](C)[C@@H]1NC(=O)[C@H](C)N(C)C(=O)C[C@@H](C(=O)N2CCOCC2)N(C)C(=O)[C@H](C2CCCCC2)N(C)C(=O)C2(CCCC2)NC(=O)[C@H](Cc2cccnc2)N(C)C(=O)[C@H](CCc2ccc(C(F)(F)F)c(Cl)c2)NC(=O)CN(C)C(=O)[C@H](CC2CCCCC2)N(C)C(=O)[C@@H]2CCN2C(=O)CN(C)C1=O` [Compound 1703] ([NMeA]I[Sar][Aze][NMeCha][Sar][hPhe(3-Cl-4-CF3)][NMe3Pal][Ac5c][NMeChg][NMeD]-Morpholide; lactam N-11): more than 500 nM.
Turning to `CC[C@H](C)[C@@H]1NC(=O)[C@H](C)N(C)C(=O)C[C@@H](C(=O)N2CCCC2)N(C)C(=O)[C@H](C(C)C)N(C)C(=O)C2(CCCC2)NC(=O)[C@@H]2CCCN2C(=O)[C@H](CCc2ccc(C(F)(F)F)c(Cl)c2)NC(=O)[C@@H](C)N(C)C(=O)[C@H](CC2CCCCC2)N(C)C(=O)[C@@H]2CCCN2C(=O)CN(C)C1=O` [Compound 1715] ([NMeA]I[Sar]P[NMeCha][dNMeA][hPhe(3-Cl-4-CF3)]P[Ac5c][NMeV][NMeD]-Pyrrolidide; lactam N-11), the IC50 is more than 500 nM.
`CCCCC[C@H]1C(=O)N(C)[C@H](C(=O)N2CCCCC2)CC(=O)N(C)[C@@H](CC(C)C)C(=O)N[C@@H]([C@@H](C)CC)C(=O)N(C)CC(=O)N(C)CC(=O)N(C)[C@@H](CC2CCCCC2)C(=O)N(C)CC(=O)N[C@@H](CCc2ccc(C(F)(F)F)c(Cl)c2)C(=O)N2CCC[C@H]2C(=O)NC2(CCCC2)C(=O)N1C` [Compound 1719] ([NMeL]I[Sar][Sar][NMeCha][Sar][hPhe(3-Cl-4-CF3)]P[Ac5c][NMeAhp(2)][NMeD]-Piperidide; lactam N-11): the IC50 is more than 500 nM.
As for `CCCC[C@@H]1NC(=O)[C@H](CC(C)C)N(C)C(=O)C[C@@H](C(=O)N2CCCCC2)N(C)C(=O)[C@H](C2CCCCC2)N(C)C(=O)C2(CCCC2)NC(=O)[C@@H]2CCCN2C(=O)[C@H](CCc2ccc(C(F)(F)F)c(Cl)c2)NC(=O)CN(C)C(=O)[C@H](CC2CCCCC2)N(C)C(=O)CN(C)C(=O)CN(C)C1=O` [Compound 1723] ([NMeL][Nle][Sar][Sar][NMeCha][Sar][hPhe(3-Cl-4-CF3)]P[Ac5c][NMeChg][NMeD]-Piperidide; lactam N-11), the IC50 is more than 500 nM.
The same measure for `CC[C@H](C)[C@@H]1NC(=O)[C@H](C)N(C)C(=O)C[C@@H](C(=O)N2CCCCC2)N(C)C(=O)[C@H](C(C)C)N(C)C(=O)C2(CCCC2)NC(=O)[C@@H]2CCCN2C(=O)[C@H](CCc2ccc(C(F)(F)F)c(Cl)c2)NC(=O)[C@H]2CCCN2C(=O)[C@H](Cc2ccc(F)cc2)N(C)C(=O)[C@@H]2CCCN2C(=O)CN(C)C1=O` [Compound 1725] ([NMeA]I[Sar]P[NMePhe(4-F)][dP][hPhe(3-Cl-4-CF3)]P[Ac5c][NMeV][NMeD]-Piperidide; lactam N-11): more than 500 nM; for `CC[C@H](C)[C@@H]1NC(=O)[C@H](C)N(C)C(=O)C[C@@H](C)NC(=O)[C@H](C(C)C)N(C)C(=O)C2(CCCC2)NC(=O)[C@@H]2CCCN2C(=O)[C@H](CCc2ccc(C(F)(F)F)c(Cl)c2)NC(=O)[C@H]2CCCN2C(=O)[C@H](Cc2ccccc2)N(C)C(=O)[C@@H]2CCCN2C(=O)CN(C)C1=O` [Compound 1730] (cyclo([Ac5c][NMeV][d(β3hA)][NMeA]I[Sar]P[NMeF][dP][hPhe(3-Cl-4-CF3)]P)): more than 500 nM.
